# Source: patent publication US8778964B2, “Hydroxy-substituted imidazo[1,2-a]-pyridinecarboxamides and their use” (Bayer Pharma Aktiengesellschaft, priority 2012, dated 2014)
# Where a name gives a salt, the structure may show the parent alone.
# Test system: recombinant guanylate cyclase reporter cell line
# Test: Action on recombinant guanylate cyclase reporter cell line (MEC)
# Format: cell-based
# Settings: in some cases mean values obtained from individual determinations
# How it was run: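 Cell-based reporter assay with recombinant guanylate cyclase expressed in a reporter cell line, per a published method. Activity reported as minimal effective concentration (MEC), in some cases as the mean of individual determinations.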
row,Structure (SMILES),minimal effective concentration [µM]
1,"Cc1nc2c(OCc3c(F)cccc3F)cccn2c1C(=O)NC(CO)CCC(O)C(F)(F)F (single isomer, unassigned) [Example 138, 8-[(2,6-Difluorobenzyl)oxy]-2-methyl-N-(6,6,6-trifluoro-1,5-dihydroxyhexan-2-yl)imidazo[1,2-a]-pyridine-3-carboxamide]",0.1
2,"CCCC[C@H](CO)NC(=O)c1c(C)nc2c(OCc3c(F)cccc3F)cc(C#N)cn12 [Example 157, 6-Cyano-8-[(2,6-difluorobenzyl)oxy]-N-[(2R)-1-hydroxyhexan-2-yl]-2-methylimidazo[1,2-a]-pyridine-3-carboxamide]",0.065
3,"Cc1nc2c(OCc3c(F)cccc3F)cccn2c1C(=O)NC(CCC(F)(F)F)C(C)(C)O (single isomer, unassigned; ent-8) [Example 155, ent-8-[(2,6-Difluorobenzyl)oxy]-2-methyl-N-(6,6,6-trifluoro-2-hydroxy-2-methylhexan-3-yl)-imidazo[1,2-a]pyridine-3-carboxamide (enantiomer B)]",0.1
4,"CC[C@H](C)[C@@H](CO)NC(=O)c1c(C)nc2c(OCC3CCCCC3)cccn12 [Example 91, 8-(cyclohexylmethoxy)-N-[(2S,3S)-1-hydroxy-3-methylpentan-2-yl]-2-methylimidazo[1,2-a]pyridine-3-carboxamide]",1
5,"Cc1nc2c(OCc3cccc(Cl)c3Cl)cccn2c1C(=O)NC(CO)CO [Example 49, 8-[(2,3-dichlorobenzyl)oxy]-N-(1,3-dihydroxypropan-2-yl)-2-methylimidazo[1,2-a]-pyridine-3-carboxamide]",2
6,"CCCC[C@H](CO)NC(=O)c1c(C)nc2c(OCc3c(F)cccc3F)cc(CC)cn12 [Example 60, 8-[(2,6-difluorobenzyl)oxy]-6-ethyl-N-[(2R)-1-hydroxyhexan-2-yl]-2-methylimidazo[1,2-a]pyridine-3-carboxamide]",0.1
7,"Cc1nc2c(OCc3c(F)cccc3F)cccn2c1C(=O)NC(C)C(O)C(F)(F)F (single isomer, unassigned) [Example 143, 8-[(2,6-Difluorobenzyl)oxy]-2-methyl-N-(4,4,4-trifluoro-3-hydroxybutan-2-yl)imidazo[1,2-a]-pyridine-3-carboxamide]",0.03
8,"COCC(O)CNC(=O)c1c(C)nc2c(OCC3CCCCC3)cccn12 (stereo not shown) [Example 79, 8-(cyclohexylmethoxy)-N-(2-hydroxy-3-methoxypropyl)-2-methylimidazo[1,2-a]pyridine-3-carboxamide]",0.3
9,"CCCC[C@H](CO)NC(=O)c1c(C)nc2c(OCc3c(F)cccc3F)cccn12 [Example 1, 8-[(2,6-Difluorobenzyl)oxy]-N-[(2R)-1-hydroxyhexan-2-yl]-2-methylimidazo[1,2-a]pyridine-3-carboxamide]",0.05
10,"CC[C@@H](CO)NC(=O)c1c(C)nc2c(OCC3CCCCC3)cccn12 [Example 88, 8-(cyclohexylmethoxy)-N-[(2S)-1-hydroxybutan-2-yl]-2-methylimidazo[1,2-a]pyridine-3-carboxamide]",1
11,"Cc1nc2c(OCc3c(F)cccc3F)cccn2c1C(=O)NCC(O)COc1ccccc1 (stereo not shown) [Example 137, 8-[(2,6-difluorobenzyl)oxy]-N-(2-hydroxy-3-phenoxypropyl)-2-methylimidazo[1,2-a]-pyridine-3-carboxamide]",3
12,"Cc1nc2c(OCc3c(F)cccc3F)cccn2c1C(=O)NC(CC(F)(F)F)C(C)(C)O (single isomer, unassigned; ent-8) [Example 154, ent-8-[(2,6-Difluorobenzyl)oxy]-2-methyl-N-(1,1,1-trifluoro-4-hydroxy-4-methylpentan-3-yl)-imidazo[1,2-a]pyridine-3-carboxamide (enantiomer B)]",0.03
13,"Cc1nc2c(OCc3c(F)cccc3F)cccn2c1C(=O)NCCC(C)O (racemic) [Example 28, (rac)-8-[(2,6-difluorobenzyl)oxy]-N-(3-hydroxybutyl)-2-methylimidazo[1,2-a]pyridine-3-carboxamide]",0.65
14,"Cc1nc2c(OCc3c(F)cccc3F)cccn2c1C(=O)N[C@H]1CCC[C@@H]1O [Example 19, 8-[(2,6-difluorobenzyl)oxy]-N-[(1S,2S)-2-hydroxycyclopentyl]-2-methylimidazo[1,2-a]-pyridine-3-carboxamide]",1
15,"Cc1nc2c(OCc3c(F)cccc3F)cccn2c1C(=O)N[C@@H](CO)c1ccccc1 (racemic) [Example 104, rac-8-[(2,6-difluorobenzyl)oxy]-N-[(1R)-2-hydroxy-1-phenylethyl]-2-methylimidazo[1,2-a]pyridine-3-carboxamide trifluoroacetate]",0.1
16,"Cc1nc2c(OCc3c(F)cccc3F)cccn2c1C(=O)NCCC1(O)CCCCC1 [Example 116, 8-[(2,6-difluorobenzyl)oxy]-N-[2-(1-hydroxycyclohexyl)ethyl]-2-methylimidazo[1,2-a]pyridine-3-carboxamide]",0.3

row,Structure (SMILES),minimal effective concentration [µM]
1,"Cc1nc2c(OCc3c(F)cccc3F)cccn2c1C(=O)NC(c1ccc(Cl)cc1)C(C)(C)O (racemic) [Example 151, rac-N-[1-(4-chlorophenyl)-2-hydroxy-2-methylpropyl]-8-[(2,6-difluorobenzyl)oxy]-2-methylimidazo[1,2-a]pyridine-3-carboxamide]",0.3
2,"CCCC[C@H](CO)NC(=O)c1c(C)nc2c(OCc3cccc(Cl)c3Cl)cccn12 [Example 9, 8-[(2,3-dichlorobenzyl)oxy]-N-[(2R)-1-hydroxy-hexan-2-yl]-2-methylimidazo[1,2-a]pyridine-3-carboxamide]",0.5
3,"Cc1cc(OCCC(C)C)c2nc(C)c(C(=O)NC(CCCC(F)(F)F)C(C)(C)O)n2c1 (single isomer, unassigned; ent-2) [Example 168, ent-2,6-Dimethyl-8-(3-methylbutoxy)-N-(7,7,7-trifluoro-2-hydroxy-2-methylheptan-3-yl)imidazo-[1,2-a]pyridine-3-carboxamide]",3
4,"Cc1nc2c(OCC3CCCCC3)cccn2c1C(=O)NCCCO [Example 82, 8-(cyclohexylmethoxy)-N-(3-hydroxypropyl)-2-methylimidazo[1,2-a]pyridine-3-carboxamide]",0.3
5,"Cc1nc2c(OCC3CCCCC3)cccn2c1C(=O)NC[C@@H](O)CO [Example 80, 8-(cyclohexylmethoxy)-N-[(2R)-2,3-dihydroxypropyl]-2-methylimidazo[1,2-a]pyridine-3-carboxamide]",0.3
6,"Cc1nc2c(OCc3c(F)cccc3F)cccn2c1C(=O)NC(CC(F)(F)F)C(C)(C)O (racemic) [Example 148, rac-8-[(2,6-Difluorobenzyl)oxy]-2-methyl-N-(1,1,1-trifluoro-4-hydroxy-4-methylpentan-3-yl)-imidazo[1,2-a]pyridine-3-carboxamide]",0.03
7,"CCCC[C@H](CO)NC(=O)c1c(C)nc2c(OCc3c(F)cccc3F)cc(Br)cn12 [Example 65, 6-bromo-8-[(2,6-difluorobenzyl)oxy]-N-[(2R)-1-hydroxyhexan-2-yl]-2-methylimidazo[1,2-a]pyridine-3-carboxamide]",0.03
8,"CCOCC(CO)NC(=O)c1c(C)nc2c(OCc3c(F)cccc3F)cccn12 (single isomer, unassigned; ent-8) [Example 161, ent-8-[(2,6-Difluorobenzyl)oxy]-N-(1-ethoxy-3-hydroxypropan-2-yl)-2-methylimidazo[1,2-a]-pyridine-3-carboxamide (enantiomer A)]",1
9,"Cc1nc2c(OCc3c(F)cccc3F)cccn2c1C(=O)NC(CO)COCC(C)C (racemic) [Example 163, rac-8-[(2,6-Difluorobenzyl)oxy]-N-(1-hydroxy-3-isobutoxypropan-2-yl)-2-methylimidazo[1,2-a]-pyridine-3-carboxamide]",1
10,"CSCC[C@@H](CO)NC(=O)c1c(C)nc2c(OCC3CCCCC3)cccn12 [Example 90, 8-(cyclohexylmethoxy)-N-[(2S)-1-hydroxy-4-(methylsulphanyl)butan-2-yl]-2-methylimidazo[1,2-a]pyridine-3-carboxamide]",1
11,"Cc1nc2c(OCc3c(F)cccc3F)cccn2c1C(=O)NC(CO)c1ccc(S(C)(=O)=O)cc1 (racemic) [Example 120, rac-8-[(2,6-difluorobenzyl)oxy]-N-{2-hydroxy-1-[4-(methylsulphonyl)phenyl]ethyl}-2-methylimidazo[1,2-a]pyridine-3-carboxamide]",1
12,"CCC(O)CNC(=O)c1c(C)nc2c(OCc3c(F)cccc3F)cccn12 (racemic) [Example 30, (rac)-8-[(2,6-difluorobenzyl)oxy]-N-(2-hydroxybutyl)-2-methylimidazo[1,2-a]pyridine-3-carboxamide]",0.3
13,"Cc1nc2c(OCc3c(F)cccc3F)cccn2c1C(=O)NC(C)C(O)C(F)(F)F (single isomer, unassigned) [Example 145, 8-[(2,6-Difluorobenzyl)oxy]-2-methyl-N-(4,4,4-trifluoro-3-hydroxybutan-2-yl)imidazo[1,2-a]-pyridine-3-carboxamide]",>10
14,"Cc1nc2c(OCc3c(F)cccc3F)cccn2c1C(=O)NC(CO)CO [Example 26, 8-[(2,6-difluorobenzyl)oxy]-N-(1,3-dihydroxy-propan-2-yl)-2-methylimidazo[1,2-a]pyridine-3-carboxamide]",2
15,"Cc1cc(OCCC(C(F)(F)F)C(F)(F)F)c2nc(C)c(C(=O)NC(CCCC(F)(F)F)C(C)(C)O)n2c1 (racemic) [Example 170, rac-2,6-Dimethyl-N-(7,7,7-trifluoro-2-hydroxy-2-methylheptan-3-yl)-8-[4,4,4-trifluoro-3-(trifluoromethyl)butoxy]imidazo[1,2-a]pyridine-3-carboxamide]",3
